The source of these data is article PMC7496434 (Chemmedchem, 2020).

Test [1] concerns the target T1, human adenosine A3 receptor (A3AR) (Homo sapiens, UniProt P0DMS8).
T1 construct: gene ADORA3; membrane preparations of CHO cells expressing human A3AR
T1 sequence (P0DMS8 1-318): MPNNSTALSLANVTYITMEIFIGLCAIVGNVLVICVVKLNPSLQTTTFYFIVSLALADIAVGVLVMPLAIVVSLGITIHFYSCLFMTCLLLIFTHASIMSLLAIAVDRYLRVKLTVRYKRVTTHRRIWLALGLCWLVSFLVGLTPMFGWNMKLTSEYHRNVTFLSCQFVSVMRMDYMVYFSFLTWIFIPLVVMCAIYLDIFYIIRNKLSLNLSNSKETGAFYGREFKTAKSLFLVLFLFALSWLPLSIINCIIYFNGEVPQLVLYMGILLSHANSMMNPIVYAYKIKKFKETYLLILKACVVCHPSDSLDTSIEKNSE
The test is described as follows: [3H]PSB-11 radioligand competition, CHO membranes. It counts as binding. The conditions noted are these: 0.5 nM [3H]PSB-11, 50 mM Tris-HCl pH 7.4, 23 °C, 60 min; read-out: 6. From the text:
[3H]PSB-11 radioligand competition, CHO membranes on human adenosine A3 receptor (A3AR)
For orientation: Displacement assays read how much labelled ligand stays bound in the presence of the test substance.

A further test has as its target T2, human P2X3 receptor (Homo sapiens, UniProt P56373).
T2 construct: gene P2RX3; full-length receptor stably expressed in 1321 N1 astrocytoma cells; homotrimer
T2 sequence (P56373 1-397): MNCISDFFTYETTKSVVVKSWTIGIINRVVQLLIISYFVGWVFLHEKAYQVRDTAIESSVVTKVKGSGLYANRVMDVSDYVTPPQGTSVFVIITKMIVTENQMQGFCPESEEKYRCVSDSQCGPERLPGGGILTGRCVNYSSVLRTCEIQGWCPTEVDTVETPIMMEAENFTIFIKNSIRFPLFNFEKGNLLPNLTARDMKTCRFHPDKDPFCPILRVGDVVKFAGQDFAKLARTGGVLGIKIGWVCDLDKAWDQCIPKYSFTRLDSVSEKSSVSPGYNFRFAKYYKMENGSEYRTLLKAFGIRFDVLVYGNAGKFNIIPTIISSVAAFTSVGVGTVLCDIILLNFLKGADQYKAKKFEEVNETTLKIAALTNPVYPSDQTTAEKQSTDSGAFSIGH
The test is described as follows: inhibition of ATP-induced calcium influx. It is filed as cell-based. The conditions noted are these: agonist ATP at ~80% of maximal effect; read-out: 6. From the text: inhibition of ATP-induced calcium influx on human P2X3 receptor

Test [2] concerns the target T3, human leukocyte elastase (HLE) (Homo sapiens, UniProt P08246).
T3 construct: gene ELANE; enzyme stock in sodium acetate buffer
T3 sequence (P08246 30-247): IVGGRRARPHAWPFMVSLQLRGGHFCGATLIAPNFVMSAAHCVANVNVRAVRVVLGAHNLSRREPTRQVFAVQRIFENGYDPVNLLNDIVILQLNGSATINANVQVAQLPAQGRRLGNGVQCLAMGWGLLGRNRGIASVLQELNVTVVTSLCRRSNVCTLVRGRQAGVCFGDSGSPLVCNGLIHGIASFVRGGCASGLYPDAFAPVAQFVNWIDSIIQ
Kind of test: chromogenic assay, […] nm. It counts as biochemical. The conditions noted are these: 100 μM MeO-Suc-Ala-Ala-Pro-Val-pNA, sodium phosphate pH 7.8, 500 mM NaCl, 25 °C, 1.5% DMSO; read-out: 6.

The next test concerns 1321N1 astrocytoma cells. The test is described as follows: cells. Further details: MTT viability assay, absorbance at 570 nm. The conditions noted are these: Homo sapiens, 1321-N1, 72 h; read-out: Growth inhibition IC50 ± SEM. The protocol:
MTT assays: The test compounds were investigated at human 1321 N1 astrocytoma cells using the 3‐(4,5‐dimethylthiazol‐2‐yl)‐2,5‐diphenyltetrazolium bromide (MTT) assay in order to assess their cytotoxic effects. Assays were performed as previously described by Baqi et al.30 In brief, cells were detached from the 175 cm^2 culture flasks in which they were grown and subsequently counted using a Neubauer haemocytometer. Then, they were resuspended in the growth medium. An aliquot of the cell suspension (180 μL) was added into each well of a 96‐well plate to obtain 1000 cells per well and incubated for 24 h at 37 °C, 5 % CO2, and 95 % humidity. The outer wells of the 96‐well plate were filled with 200 μL of phosphate‐buffered saline (PBS) to prevent evaporation of the fluid. After 24 h, stock solutions (10 mM) of the test compounds (archazolids) were prepared in DMSO and diluted with cell culture medium to give tenfold of the final concentrations. […] The spectrophotometric absorbance was subsequently measured at 570 nm using a FlexStation (3 multimode plate reader, molecular devices) with a filter of 690 nm. The data were analyzed using Microsoft Excel and GraphPad Prism 5. Results were evaluated by comparing the absorbance of the wells containing compound‐treated cells with the absorbance of wells containing 1 % DMSO without any drug (=100 % viability). […]

As to `COC1C(C)=CCCCCOC(=O)CCCC(C)=CC(O)C(C)C=C(C)C=C(C)C=CC(O)C1C` (stereo not shown) [compound 6, Analogue 6], the Ki in test [1] is 436 ± 111 nM; in test [2], 13300 ± 1500 nM. The IC50 on human P2X3 receptor was determined as 1190 ± 180 nM.
`COC1C(C)=CCCCCOC(=O)CCCC(C)=CC(O)C(C)C=C(C)C=C(C)C=CC(O)C1C` (stereo not shown) [compound 6]: in the test with 1321N1 astrocytoma cells, the IC50 turned out to be 19.6 ± 4 nM.
